Experimental data taken from patent US9353090B2, “Heterocyclic carboxylic acids as activators of soluble guanylate cyclase” (Boehringer Ingelheim International GmbH, priority 2014, dated 2016).
Converted amounts (≈) assume the structure as drawn.

Assays:
[1] = physchem; settings: kinetic from dmso stock
[2] = Human liver microsome (HLM) metabolic stability assay; format: in vitro ADME; settings: human liver microsomes
Description: The 5 time point, high-throughput human liver microsome (HLM) metabolic stability assay is designed to determine in vitro compound metabolism. Compounds are incubated with HLMs at a concentration of 1 uM, at 37° C., for a total of 60 min. The percent of compound remaining at 5, 15, 30, and 60 min is used to calculate the t1/2 (min), CLint (mL/min/kg), CLh (mL/min/kg), and % Qh. The assay is based on a 96-well format and can accommodate up to 92 compounds per plate (n=1).
Using the 96-well multi-channel head, the Biomek FX, equipped with a Peltier heating block/shaker, is programmed to accomplish the following steps: • 1. Pipette 175 uL of 1.15 mg/mL microsomes into each of the 96 conical inserts (Analytical Sales and Products, catalog number 96PL05) that fit into the plate of the Peltier heating block/shaker (the incubation plate) • 2. Add 5 uL of compounds from the assay plate to the microsomes and shake the mixture at 600 rpm at 42.1° C. for 10 min (a setting of 42.1° C. on the Peltier is required for the samples to incubate at 37° C.) • 3. After 10 min, prompt the user to add the NADPH plate to the deck and add 20 uL from the NADPH plate to the incubation plate to start the reaction • 4. Add 215 uL of 100%, cold acetonitrile containing an internal standard(s) to a 0 minute, 5 minute, 15 minute, 30 minute, and 60 minute “quench” plate • 5. At 0 min, 5 min, 15 min, 30 min, and 60 min into the incubation, aspirate 12 uL from the incubation mixture and add it to the quench solution to stop the reaction • 6. Add 185 uL HPLC grade water to each well of the 0, 5, 15, 30 and 60 minute quench plates to dilute compounds to the appropriate concentration for the mass spectrometer
After all time points are collected, the quench plates are sealed with 96-well pierceable plate mats or heat sealing foil and centrifuged at 3000 rpm for 15 min to pellet the microsomes.
The plates are analyzed using LC/MS/MS with electron spray ionization (ESI) and the previously determined MRM transitions. The LC method includes the following parameters:
Using an Excel template in Activitybase, the peak areas corresponding to 5, 15, 30 and 60 min are compared to the peak area at 0 min to calculate the percent of remaining compound using the following equation:
Percent compound remaining=(AUC at Time t min/AUC at Time 0 min)×100 where t=0, 5, 15, 30 or 60 min.
Time (min) is plotted against the natural logarithm (Ln) of the percent compound remaining to determine the slope. The slope is used to calculate t1/2 (min) using the equation, t1/2=0.693/slope.
Clh, Hepatic clearance • Hepatic flow*f(u)*Clint/(hepatic flow+f(u)*Clint)
Qh, % Hepatic blood flow • (Clh/Hepatic flow)*100
Preferred compounds have % Qh values of less than 24.

[3] = biological target: human soluble guanylate cyclase alpha 1 and beta 1 subunits (sGC) (Homo sapiens (Human), UniProt Q02108+Q02153); experiment: sGC cellular activator assay (cGMP, HTRF), in the presence and absence of 50% human serum; format: cell-based; settings: CHO cells stably expressing human sGC alpha 1/beta 1, preincubated with 40 microM ODQ; cGMP by HTRF; Table 2 does not state whether with or without 50% human serum
Description: The sGC cellular activator assay is performed in the presence and absence of 50% human serum (HS) using Chinese hamster ovary cells that have been stably transfected to express the human soluble guanylate cyclase alpha 1 and beta 1 subunits (sGC). Cells are preincubated with 40 microM 1H-[1,2,4]oxadiazolo[4,3-a]quinoxalin-1-one (ODQ), an sGC inhibitor, for one h in buffer containing 0.1% bovine serum albumin and 3-isobutyl-1-methylxanthine (IBMX). Concentration response curves are prepared for test compounds in DMSO. An intermediate dilution of the compounds is performed in either buffer containing IBMX or type AB HS containing IBMX. Diluted compounds are added to cells and they are incubated at room temperature for thirty min. cGMP is measured using a CisBio homogeneous time resolved fluorescence kit and the EC50 is calculated for each compound.
Representative compounds of the present invention were tested for activity the above assay. Preferred compounds have an EC50 of <1,000 nM in the above assay and more preferred compounds have an EC50<200 nM.

[4] = pH 2.2, aqueous buffer, Solubility (pH 2.2)
[5] = pH 4.5, aqueous buffer, Solubility (pH 4.5)
[6] = pH 6.8, aqueous buffer, Solubility (pH 6.8)

Sequence of human soluble guanylate cyclase alpha 1 and beta 1 subunits (sGC) (Q02108 whole entry partner): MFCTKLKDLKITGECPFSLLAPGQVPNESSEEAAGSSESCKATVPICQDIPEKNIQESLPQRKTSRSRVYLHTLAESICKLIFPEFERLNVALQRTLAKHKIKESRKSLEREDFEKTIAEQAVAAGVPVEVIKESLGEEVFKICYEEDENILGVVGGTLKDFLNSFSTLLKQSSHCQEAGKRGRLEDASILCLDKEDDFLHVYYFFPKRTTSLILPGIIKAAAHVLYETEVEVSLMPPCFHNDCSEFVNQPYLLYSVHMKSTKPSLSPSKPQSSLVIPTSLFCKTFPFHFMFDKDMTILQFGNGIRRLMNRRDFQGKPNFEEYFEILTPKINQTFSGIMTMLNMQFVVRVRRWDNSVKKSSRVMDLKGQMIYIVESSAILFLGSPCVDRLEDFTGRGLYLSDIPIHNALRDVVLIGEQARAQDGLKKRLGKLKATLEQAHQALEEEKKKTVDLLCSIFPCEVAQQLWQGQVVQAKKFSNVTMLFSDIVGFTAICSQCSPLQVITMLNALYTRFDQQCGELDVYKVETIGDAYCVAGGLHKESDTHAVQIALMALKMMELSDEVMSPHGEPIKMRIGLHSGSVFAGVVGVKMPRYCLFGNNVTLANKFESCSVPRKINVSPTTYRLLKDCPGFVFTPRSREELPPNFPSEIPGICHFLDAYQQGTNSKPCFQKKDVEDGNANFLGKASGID
Sequence of human soluble guanylate cyclase alpha 1 and beta 1 subunits (sGC) (Q02153 whole entry): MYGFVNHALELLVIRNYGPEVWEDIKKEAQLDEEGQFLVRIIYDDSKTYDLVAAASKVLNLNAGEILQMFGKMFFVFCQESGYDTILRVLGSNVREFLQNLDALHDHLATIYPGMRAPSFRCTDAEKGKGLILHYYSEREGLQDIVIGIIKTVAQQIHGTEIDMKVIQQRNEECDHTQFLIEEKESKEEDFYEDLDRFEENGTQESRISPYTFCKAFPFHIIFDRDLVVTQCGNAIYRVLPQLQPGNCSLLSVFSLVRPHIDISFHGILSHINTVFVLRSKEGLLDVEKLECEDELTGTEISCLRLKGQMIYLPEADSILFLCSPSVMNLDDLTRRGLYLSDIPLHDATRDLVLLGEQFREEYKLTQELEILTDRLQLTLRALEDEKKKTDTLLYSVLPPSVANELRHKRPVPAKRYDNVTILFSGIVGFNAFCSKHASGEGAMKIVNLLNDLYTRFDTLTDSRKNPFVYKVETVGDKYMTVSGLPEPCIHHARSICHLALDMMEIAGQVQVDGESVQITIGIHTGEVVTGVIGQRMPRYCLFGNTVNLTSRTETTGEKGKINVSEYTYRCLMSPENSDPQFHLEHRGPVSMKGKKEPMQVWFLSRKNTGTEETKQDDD

Compound | solubility at 24 h [1, 4] | solubility at 24 h [1, 5] | solubility at 24 h [1, 6] | Metabolic stability (Qh %), % hepatic blood flow [2] | EC50 [3]
COC[C@H]1N(c2cccc(-c3cccc(C)c3OCc3ccc4c(c3)CCN(C3CCOC3)C4)n2)C[C@@H]2C[C@@]21C(=O)O (mixture of isomers) [Compound 45] | 140 µg/mL | 100 µg/mL | 81 µg/mL | <24% | 0.076 µM
Cc1ccc(OCc2cc(C)c3c(c2)CCN(C2CCCOC2)C3)c(-c2csc(N3CC[C@@]4(C(=O)O)C[C@H]4C3)n2)c1 (mixture of isomers) [Compound 121] | 110 µg/mL | 14 µg/mL | 0.69 µg/mL | <24% | 0.01 µM
Cc1ccc(OCc2cc(C)c3c(c2)CCN(C2CCOC2)C3)c(-c2csc(N3CC[C@@]4(C(=O)O)C[C@H]4C3)n2)c1 (mixture of isomers) [Compound 122] | 120 µg/mL | 18 µg/mL | 1.6 µg/mL | 43% | 0.011 µM
COC[C@H]1N(c2cccc(-c3cccc(C)c3OCc3cc(C)c4c(c3)CCN(C3CCOC3)C4)n2)C[C@@H]2C[C@@]21C(=O)O (single isomer, unassigned) [Compound 51] | 110 µg/mL (≈ 188 µM) | 94 µg/mL (≈ 161 µM) | 74 µg/mL (≈ 127 µM) | 28% | 0.027 µM
O=C(O)[C@@]12CCN(c3cccc(-c4ccccc4OCc4ccc5c(c4)CCN(C4CCOCC4)C5)n3)C[C@@H]1C2 [Compound 1, (1R,6S)-3-(6-{2-[2-(Tetrahydro-pyran-4-yl)-1,2,3,4-tetrahydro-isoquinolin-6-ylmethoxy]-phenyl}-pyridin-2-yl)-3-aza-bicyclo[4.1.0]heptane-6-carboxylic acid] | 140 µg/mL (≈ 259 µM) | 120 µg/mL (≈ 222 µM) | 57 µg/mL (≈ 106 µM) | <24% | 0.007 µM
O=C(O)[C@@]12CCN(c3cccc(-c4ccccc4OCc4ccc5c(c4)CCN(C4COC4)C5)n3)C[C@@H]1C2 [Compound 2] | 110 µg/mL (≈ 215 µM) | 90 µg/mL (≈ 176 µM) | 58 µg/mL (≈ 113 µM) | <24% | 0.011 µM
Cc1c(COc2ccccc2-c2cccc(N3CC[C@@]4(C(=O)O)C[C@H]4C3)n2)ccc2c1CCN(C1COC1)C2 [Compound 4] | 140 µg/mL (≈ 266 µM) | 120 µg/mL (≈ 228 µM) | 65 µg/mL (≈ 124 µM) | <24% | 0.004 µM
Cc1c(COc2ccccc2-c2cccc(N3CC[C@@]4(C(=O)O)C[C@H]4C3)n2)ccc2c1CCN(CC1COCCO1)C2 (stereo partly drawn) [Compound 5] | 160 µg/mL (≈ 281 µM) | 140 µg/mL (≈ 246 µM) | 79 µg/mL (≈ 139 µM) | 35% | 0.003 µM
Cc1c(COc2ccccc2-c2cccc(N3CC[C@@]4(C(=O)O)C[C@H]4C3)n2)ccc2c1CCN(C1CCOCC1)C2 [Compound 6] | 160 µg/mL (≈ 289 µM) | 130 µg/mL (≈ 235 µM) | 60 µg/mL (≈ 108 µM) | 54% | 0.003 µM
Cc1c(COc2ccccc2-c2cccc(N3CC[C@@]4(C(=O)O)C[C@H]4C3)n2)ccc2c1CCN([C@H]1CCOC1)C2 [Compound 7] | 150 µg/mL (≈ 278 µM) | 120 µg/mL (≈ 222 µM) | 59 µg/mL (≈ 109 µM) | 45% | 0.011 µM
CO[C@H]1CN(c2nc(-c3cc(C)ccc3OCc3ccc4c(c3C)CCN(C[C@H]3CCOC3)C4)cs2)CC[C@H]1C(=O)O [Compound 179] | – | – | – | – | 0.017 µM
Cc1ccc(OCc2ccc3c(c2)CCN(C2CCC(F)(F)CC2)C3)c(-c2csc(N3C[C@H]4CC[C@@H](C3)[C@H]4C(=O)O)n2)c1 [Compound 183] | – | – | – | 42% | 0.08 µM
Cc1ccc(OCc2ccc3c(c2)CCN(C2CCOCC2)C3)c(-c2csc(N3C[C@H]4CC[C@@H](C3)[C@H]4C(=O)O)n2)c1 [Compound 184] | – | – | – | – | 0.068 µM
Cc1ccc(OCc2ccc3c(c2)CCN(C2CCOCC2)C3=O)c(-c2cccc(N3CC[C@@]4(C(=O)O)C[C@H]4C3)n2)c1 [Compound 193] | – | – | – | 52% | 0.022 µM
CCO[C@H]1CN(c2nccc(-c3cccc(C)c3OCc3cc(C)c4c(c3)CCN(C3CCOCC3)C4)n2)CC[C@H]1C(=O)O [Compound 245] | – | – | – | <24% | 0.023 µM
CCO[C@@H]1CN(c2nccc(-c3cccc(C)c3OCc3cc(C)c4c(c3)CCN(C3CCOCC3)C4)n2)CC[C@@H]1C(=O)O [Compound 247] | – | – | – | <24% | 0.659 µM
CO[C@H]1CN(c2nc(-c3cccc(C)c3OCc3cc(C)c4c(c3)CCN(C3COC3)CC4)cs2)CC[C@H]1C(=O)O [Compound 294] | 108 µg/mL (≈ 187 µM) | 77.7 µg/mL (≈ 134 µM) | 77.9 µg/mL (≈ 135 µM) | <24% | –
CO[C@H]1CN(c2nc(-c3cccc(C)c3OCc3cc(C)c4c(c3)CCN(C3CCOCC3)CC4)cs2)CC[C@H]1C(=O)O [Compound 295] | 109 µg/mL (≈ 180 µM) | 80.5 µg/mL (≈ 133 µM) | 79.2 µg/mL (≈ 131 µM) | <24% | –
Cc1csc(CN2CCc3c(ccc(COc4ccccc4-c4cccc(N5CC[C@@]6(C(=O)O)C[C@H]6C5)n4)c3C)C2)n1 [Compound 304] | 157 µg/mL (≈ 270 µM) | 154 µg/mL (≈ 265 µM) | 146 µg/mL (≈ 251 µM) | 48% | –
COCC(C)N1CCc2c(ccc(COc3ccccc3-c3cccc(N4CC[C@@]5(C(=O)O)C[C@H]5C4)n3)c2C)C1 (stereo partly drawn) [Compound 310] | 93 µg/mL (≈ 172 µM) | 73.7 µg/mL (≈ 136 µM) | 5.2 µg/mL (≈ 9.6 µM) | – | 0.005 µM
CO[C@H]1CN(c2nc(-c3cccc(Cl)c3OCc3ccc4c(c3)CCN(C3CCOCC3)C[C@H]4C)cs2)CC[C@H]1C(=O)O [Compound 333] | 109 µg/mL (≈ 173 µM) | 68.3 µg/mL (≈ 109 µM) | 66.7 µg/mL (≈ 107 µM) | – | 0.01 µM
Cc1cccc(-c2cccc(N3CC[C@@H](C(=O)O)[C@H]4OCCC[C@@H]43)n2)c1OCc1ccc2c(c1C)CCN(C1CCOCC1)CC2 [Compound 335] | – | – | – | – | 0.08 µM
